Earlier results on one compound are cited in patent publication US8686040B2, “Method for treating anal pruritis and other perianal disorders” (RDD Pharma Ltd., priority 2008, dated 2014).

Where only a bound is given, the exact number is not on record here.

For data set [1] the following is noted: relative to gabapentin.

`CC(C)C[C@H](CN)CC(=O)O` [Pregabalin]: the “time to reach peak concentration after oral ingestion” value is at most 90 min. Also, the “absorption when administered orally” value (oral) is on record as “greater than 90%”. For the same compound, in data set [1], the lipid solubility result was “higher lipid solubility than gabapentin”.
